Format in all cases: biochemical
One assay deals with T1, G6sec1 (Homo sapiens, UniProt Q9BYG0).
T1 construct: made in house; host or cells: Sf21 insect cells infected with pVL1393-F2G6sec1-derived recombinant baculovirus
T1 sequence (Q9BYG0 36-378): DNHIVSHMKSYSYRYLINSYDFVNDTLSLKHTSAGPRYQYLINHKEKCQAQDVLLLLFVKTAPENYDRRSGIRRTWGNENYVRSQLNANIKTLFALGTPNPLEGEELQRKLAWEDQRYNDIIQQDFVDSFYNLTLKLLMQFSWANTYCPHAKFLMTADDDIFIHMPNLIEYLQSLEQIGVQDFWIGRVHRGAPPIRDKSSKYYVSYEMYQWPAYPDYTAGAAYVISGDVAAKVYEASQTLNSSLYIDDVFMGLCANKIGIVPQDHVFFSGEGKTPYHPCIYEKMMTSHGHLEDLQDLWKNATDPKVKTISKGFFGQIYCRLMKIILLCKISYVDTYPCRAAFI
Nature of the assay: β1,3-N-acetylglucosaminyltransferase activity of purified FLAG peptide-fused G6 polypeptide, 2-aminobenzamide-labeled oligosaccharide substrates. The conditions noted are these: 2-aminobenzamide-labeled oligosaccharides; LNnT defined as 100%. Here is the method:
(§1) β1,3-N-Acetylglucosaminyltransferase activity of the FLAG peptide-fused G6 polypeptide secreted and produced in insect cells was measured by using the eluate prepared in Example 8(6). The method of Example 7 was used for the activity measurement.
(§2) As substrates, oligosaccharides [LNnT, Galβ1-4GlcNAcβ1-3Galβ1-4GlcNAc (hereinafter referred to as “2LN”), Galβ1-4GlcNAcβ1-3Galβ1-4GlcNAcβ1-3Galβ1-4GlcNAc (hereinafter referred to as “3LN”), Galβ1-4GlcNAcβ1-3Galβ1-4GlcNAcβ1-3Galβ1-4GlcNAcβ1-3Galβ1-4GlcNAc (hereinafter referred to as “4LN”), Galβ1-4GlcNAcβ1-3Galβ1-4GlcNAcβ-3Galβ1-4GlcNAcβ1-3Galβ1-4GlcNAcβ1-3Galβ1-4GlcNAc (hereinafter referred to as “5LN”), or Galβ1-4(SO3-6)GlcNAcβ1-3Galβ1-4(SO3-6)GlcNAc (hereinafter referred to as “L2L2”)] were labeled with 2-aminobenzamide and used. 2-Aminobenzamide-labeling of oligosaccharides was carried out using SIGMA 2AB glycan labeling kit (manufactured by Oxford Glycoscience) according to the manufacture's instructions of the kit. LNnT was purchased from Oxford Glycosystems. Other oligosaccharides were obtained from Seikagaku Corporation.
Specifically, the reaction was carried out at 37° C. for 16 hours in 20 μl of an assay solution [150 mmol/l sodium cacodylate (pH 7.2), 50 mmol/l UDP-GlcNAc (manufactured by SIGMA), 0.4% Triton CF-54, 10 mmol/l MnCl2, 5 μmol/12-aminobenzamide-labeled sugar chain substrate, the above purified enzyme solution], and then the product was detected by high performance liquid chromatography (HPLC, details will be described below). […]
(§3) The assay solution after completion of the reaction was treated at 100° C. for 5 minutes and then mixed with 50 μl of pure water for HPLC and centrifuged at 10,000×g for 5 minutes to obtain the supernatant. To a tube containing the assay solution, 50 μl of pure water for HPLC was added again, the tube was washed, and suparnatant was obtained by centrifugation at 10,000×g for 5 minutes and was combined with the first supernatant. Next, the supernatant was passed through Ultrafree-MC column (manufactured by Millipore) and a portion thereof (10 μl) was subjected to HPLC. The Ultrafree-MC column was used according to the method described in the manufacture's instructions attached thereto.
(§4) The HPLC was carried out using TSK-gel ODS-80Ts Column (4.6×300 mm; manufactured by TOSOH) as a column and 0.02 mol/l ammonium acetate buffer containing 7% methanol (pH 4.0) as an eluant at an elution temperature of 50° C. and a flow rate of 1 ml/min.
(§5) The product was detected using a fluorescence spectrophotometer FP-920 (manufactured by JASCO Corporation) (excitation wavelength: 330 nm, radiation wavelength: 420 nm).

Assay [1] has as its target T2, G6sec2 (Homo sapiens, UniProt Q9BYG0).
T2 construct: made in house; host or cells: Sf21 insect cells infected with pVL1393-F2G6sec2-derived recombinant baculovirus
T2 sequence (Q9BYG0 39-378): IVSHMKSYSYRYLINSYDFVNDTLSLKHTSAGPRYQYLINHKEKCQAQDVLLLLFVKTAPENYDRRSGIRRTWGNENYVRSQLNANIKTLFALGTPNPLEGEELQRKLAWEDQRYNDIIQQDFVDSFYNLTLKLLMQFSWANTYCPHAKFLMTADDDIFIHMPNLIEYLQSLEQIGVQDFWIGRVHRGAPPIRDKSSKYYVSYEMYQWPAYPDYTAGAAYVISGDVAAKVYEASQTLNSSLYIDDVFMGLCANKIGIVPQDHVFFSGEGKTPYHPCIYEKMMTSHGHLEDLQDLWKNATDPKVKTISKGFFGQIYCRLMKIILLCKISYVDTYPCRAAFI
The description is as above. Particulars: 2-aminobenzamide-labeled oligosaccharides, LNnT defined as 100%; for Relative activity (%) Test 2 G6sec2: enzyme prepared again. As for the experimental part:
as §1, §2
Specifically, the reaction was carried out at 37° C. for 16 hours in 20 μl of an assay solution [150 mmol/l sodium cacodylate (pH 7.2), 50 mmol/l UDP-GlcNAc (manufactured by SIGMA), 0.4% Triton CF-54, 10 mmol/l MnCl2, 5 μmol/12-aminobenzamide-labeled sugar chain substrate, the above purified enzyme solution], and then the product was detected by high performance liquid chromatography (HPLC, details will be described below). As the enzyme, an eluate (1.5 μl) prepared from a culture supernatant of Sf21 infected with the recombinant virus derived from pVL1393-F2G6sec1 or an eluate (1.4 μl) prepared from a culture supernatant of Sf21 infected with the recombinant virus derived from pVL1393-F2G6sec2, prepared in Example 8(6), was used.
as §3, §4, §5
Also, a purified enzyme (G6sec2) was again prepared using the method shown in Example 8(6), its substrate specificity was again examined, and the results are also shown in Table 1 (Test 2 in Table 1). The purified enzyme (280 μl) was prepared from 30 ml of a culture supernatant of Sf21 infected with the recombinant virus derived from pVL1393-F2G6sec2, and the assay was carried out using a 4 μl portion thereof. Relative activities when the activity measured using 2-aminobenzamide-labeled LNnT as the substrate is defined as 100% are shown in the table.

Assay [2] deals with T2, G6sec2. Briefly: β1,3-N-acetylglucosaminyltransferase activity using pyridylaminated oligosaccharides as substrates. The conditions noted are these: pyridylaminated oligosaccharides 50 μmol/l, 37° C., 14.5 hours, LNnT defined as 100%. As for the experimental part:
After carrying out the reaction at 37° C. for 14.5 hours in 30 μl of an assay solution [150 mmol/l sodium cacodylate (pH 7.2), 50 mmol/l UDP-GlcNAc (manufactured by SIGMA), 0.4% Triton CF-54, 10 mmol/l MnCl2, 50 μmol/l pyridylaminated sugar chain substrate, a purified enzyme solution (G6sec2)], the product was detected by HPLC. The purified enzyme (G6sec2) was obtained according to the method shown in Example 8(6). The purified enzyme (280 μl) was prepared from 30 ml of a culture supernatant of Sf21 infected with the recombinant virus derived from pVL1393-F2G6sec2, and the assay was carried out using 5 μl thereof. As substrates, LnNT, lacto-N-tetraose (Galβ1-3GlcNAcβ1-3Galβ1-4Glc (hereinafter referred to as “LNT”), lacto-N-fucopentaose II (Galβ1-3(Fucα1-4)GlcNAcβ1-3Galβ1-4Glc; hereinafter referred to as “LNFP-II”), lacto-N-fucopentaose III (Galβ1-4(Fucα1-3)GlcNAcβ1-3Galβ1-4Glc; hereinafter referred to as “LNFP-III”), lacto-N-fucopentaose V (Galβ1-3GlcNAcβ1-3Galβ1-4(Fucα1-3)Glc; hereinafter referred to as “LNFP-V”), and lacto-N-difucohexaose II (Galβ1-3(Fucα1-4)GlcNAcβ1-3Galβ1-4(Fucα1-3)Glc; hereinafter referred to as “LNDFH-II”) (all manufactured by Oxford Glycosystems) were fluorescently-labeled with aminopyridine and used. The substrates were fluorescently-labeled according to a conventional method [Agric. Biol. Chem., 54, 2169 (1990)].
After carrying out the reaction on each substrate using an assay solution containing UDP-GlcNAc (saccharide donor) and an assay solution containing no donor and subsequently analyzing by HPLC, peaks appeared only in the assay solution containing UDP-GlcNAc was defined as products.
The assay solution after completion of the reaction was treated at 100° C. for 5 minutes and then centrifuged at 10,000×g for 5 minutes to obtain a supernatant, and a part thereof (5 μl) was subjected to HPLC.
The HPLC was carried out using TSK-gel ODS-80Ts Column (4.6×300 mm; manufactured by TOSOH) and 0.02 mol/l ammonium acetate buffer (pH 4.0) as the eluant at an elution temperature of 50° C. and a flow rate of 0.5 ml/min.
Detection and determination of products were carried out using a fluorescence spectrophotometer FP-920 (manufactured by JASCO Corporation) (excitation wavelength: 320 nm, radiation wavelength: 400 nm).

Regarding `CC(=O)N[C@H]1[C@H](O[C@H]2[C@@H](O)[C@@H](CO)O[C@@H](O[C@H]3[C@H](O)[C@@H](NC(C)=O)[C@H](O[C@H]4[C@@H](O)[C@@H](CO)O[C@@H](O[C@H]5[C@H](O)[C@@H](NC(C)=O)C(O)O[C@@H]5CO)[C@@H]4O)O[C@@H]3CO)[C@@H]2O)O[C@H](CO)[C@@H](O[C@@H]2O[C@H](CO)[C@H](O)[C@H](O)[C@H]2O)[C@@H]1O` (stereo partly drawn) [3LN, Galβ1-4GlcNAcβ1-3Galβ1-4GlcNAcβ1-3Galβ1-4GlcNAc], on G6sec1, the “Relative activity (%) Test 1 G6sec1” value stood at 92.9%. Further, on G6sec2 [1], the “Relative activity (%) Test 1 G6sec2” value was found to be 95.8% and the “Relative activity (%) Test 2 G6sec2” value is 79.2%. Turning to `CC(=O)N[C@H]1[C@H](O[C@H]2[C@@H](O)[C@@H](CO)O[C@@H](O[C@@H]([C@H](O[C@@H]3O[C@@H](C)[C@@H](O)[C@@H](O)[C@@H]3O)[C@@H](O)C=O)[C@H](O)CO)[C@@H]2O)O[C@H](CO)[C@@H](O[C@@H]2O[C@@H](C)[C@@H](O)[C@@H](O)[C@@H]2O)[C@@H]1O[C@@H]1O[C@H](CO)[C@H](O)[C@H](O)[C@H]1O` [LNDFH-II, lacto-N-difucohexaose II], the “Relative activity (%)” value at G6sec2 [2] is less than 0.05%. For “Galβ1-4GlcNAcβ1-3Galβ1-4GlcNAcβ-3Galβ1-4GlcNAcβ1-3Galβ1-4GlcNAcβ1-3Galβ1-4GlcNAc [5LN]”, the “Relative activity (%) Test 1 G6sec1” value on G6sec1 is 9.3%. For the same molecule, at G6sec2 [1], the “Relative activity (%) Test 1 G6sec2” value is recorded as 11.5% and the “Relative activity (%) Test 2 G6sec2” value turned out to be 12.3%.

Take “Galβ1-4(SO3-6)GlcNAcβ1-3Galβ1-4(SO3-6)GlcNAc [L2L2]”: the “Relative activity (%) Test 2 G6sec2” value at G6sec2 [1] is on record as 5.9%.

As for `CC(=O)N[C@H]1[C@H](O[C@H]2[C@@H](O)[C@@H](CO)O[C@@H](O[C@H]3[C@H](O)[C@@H](O)C(O)O[C@@H]3CO)[C@@H]2O)O[C@H](CO)[C@@H](O)[C@@H]1O[C@@H]1O[C@H](CO)[C@H](O)[C@H](O)[C@H]1O` (stereo partly drawn) [LNT, lacto-N-tetraose], the “Relative activity (%)” value at G6sec2 [2] is on record as 5.5%. As for lacto-N-fucopentaose III [LNFP-III], on G6sec2 [2], the “Relative activity (%)” value was 4.9%. As to “Galβ1-4GlcNAcβ1-3Galβ1-4GlcNAcβ1-3Galβ1-4GlcNAcβ1-3Galβ1-4GlcNAc [4LN]”, on G6sec1, the “Relative activity (%) Test 1 G6sec1” value turned out to be 13.2%. Besides, at G6sec2 [1], the “Relative activity (%) Test 1 G6sec2” value is given as 21.5% and the “Relative activity (%) Test 2 G6sec2” value is 10.0%.

For the molecule `CC(=O)N[C@H]1[C@H](O[C@H]2[C@@H](O)[C@@H](CO)O[C@@H](O[C@@H]([C@H](O)[C@@H](O)C=O)[C@H](O)CO)[C@@H]2O)O[C@H](CO)[C@@H](O[C@@H]2O[C@@H](C)[C@@H](O)[C@@H](O)[C@@H]2O)[C@@H]1O[C@@H]1O[C@H](CO)[C@H](O)[C@H](O)[C@H]1O` [LNFP-II, lacto-N-fucopentaose II], the “Relative activity (%)” value on G6sec2 [2] is less than 0.05%.

lacto-N-fucopentaose V [LNFP-V]: the “Relative activity (%)” value on G6sec2 [2] is reported as 4.9%.

The values are drawn from patent US7629150B2, “Transformed cell harboring DNA or RNA encoding sugar chain synthesizing agent having β1,3-N-acetylglucosaminyltransferase activity” (Kyowa Hakko Kirin Co., Ltd., priority 2000, dated 2009).
